Measured values published in patent US12102640B2, “Use of dopamine and serotonin receptor antagonists for treatment in a subject with retinal degeneration” (United States Government as represented by the Department …, priority 2015, dated 2024).
Entries after “also recorded” stand apart in the source; their conditions may differ.

Experiments:
P23H rat RGCs = test: Light sensitivity (intensity-response functions) of RGCs in isolated P23H rat retina, extracellular recording; type: cell-based; conditions: for number of RGCs tested whose sensitivity was increased / average lowering of light intensity (increase in light sensitivity): P23H rat RGCs; for number of RGCs tested whose sensitivity was increased: one cell per retina; for average lowering of light intensity (increase in light sensitivity): difference of means before vs during drug; for light intensity at which the pre-drug half-maximum response was obtained in the presence of the drug, average: mean±SD of P23H rat RGCs (n=4-12), 100 ms flashes, concentration not given; for increase in light sensitivity of the representative RGC / light intensity that evoked the pre-drug half-maximum response with application of the drug, representative RGC: single representative P23H rat RGC; for light intensity that evoked the pre-drug half-maximum response with application of the drug, representative RGC: bath applied ~10 min, relative to 8.5×10^17 photons/cm^2/s
Method: P23H-line 1 homozygous rats (age range 22-37 weeks) were used. Breeding pairs of P23H-line 1 homozygous rats were generously donated by Dr. Matthew LaVail (University of California San Francisco, CA). The room light was kept on a 12 hr light/dark cycle using standard fluorescent lighting. During the light cycle, the illumination at the level of the cages was 100-200 lux.
(§1) On the day of an experiment, a rat was euthanized with sodium pentobarbital (150 mg/kg, i.p.), and the eyes were removed and hemisected under normal room light. After removal of the vitreous humour from each eye, one eyecup was transferred to a holding vessel containing bicarbonate-buffered Ames medium (Sigma-Aldrich), which was continuously gassed at room temperature with 5% CO2/95% O2. The retina of the other eyecup was gently peeled from the retinal pigment epithelium/choroid and trimmed into a square of ˜12 mm^2. The retina was then placed photoreceptor side down in a small volume (0.1 ml) chamber. The chamber was mounted on a fixed-stage upright microscope (Nikon Eclipse E600FN), and the retina superfused at 1.5 ml/min with bicarbonate-buffered Ames medium supplemented with 2 mg/ml D-(+) glucose and equilibrated with 5% CO2/95% O2. An in-line heating device (Warner Instruments) was used to maintain recording temperature at 35-36° C. The retina of the other eyecup was used later in the day.
(§2) Electrical Recording: Action potentials (spikes) were recorded extracellularly from individual RGCs. With the aid of red light (>630 nm) that was delivered from below the chamber, the tip of a glass insulated platinum/tungsten microelectrode (0.6-1.0 MΩ impedance; Thomas Recording GmbH, Germany) was visually advanced to the retinal surface with a motor-driven micromanipulator. Extracellular potentials from RGCs were amplified and bandpass filtered at 100 to 5000 Hz by a differential amplifier (Xcell-3; FHC, Bowdoin, ME). […] Spikes from single RGCs were converted to standard transistor to transistor logic (TTL) pulses with a time-amplitude window discriminator (APM Neural Spike Discriminator, FHC). A laboratory data acquisition system (1401 Processor and Spike2 software; Cambridge Electronic Design Ltd., Cambridge, UK) was used to digitize the TTL pulses and raw spike train data.
(§3) Light from a mercury arc lamp illuminated an aperture that was focused on the retina from above, through the 4× objective of the microscope. The image produced on the retina was either a 250-μm or 1.5-mm diameter spot, which was centered on the recorded RGC. In the light path was a 545 nm interference filter (bandwidth, 30 nm). The intensity of the unattenuated light stimulus on the retina, measured with a spectroradiometer (ILT900-R, International Light Technologies), was 8.5×10^17 photons/cm^2/s. Light intensities are expressed herein in log units relative to the unattenuated light intensity. An electromechanical shutter (Uniblitz, Rochester, NY) was used to control the stimulus duration, which was set to 100 ms in constructing intensity response curves. During recordings from RGCs, light flashes were presented with interstimulus intervals of 3-15 s (depending upon the duration and intensity of the light stimulus) to avoid any adapting effect of the previous flash. All experiments were performed in a dimly lighted room (10 lux).
(−)-Sulpiride was purchased from Tocris Bioscience (Minneapolis, MN). Sulpiride was dissolved in a small amount of dimethylsulphoxide (DMSO) and diluted in physiological saline. The drug solution was applied to the bathing solution using a calibrated syringe pump (Razel Scientific Instruments). Drug was bath applied for ˜10 min to ensure stable responses before effects were examined. Only one cell was studied in each retina to avoid possible residual drug effects.
Intensity-response curves were generated from the responses of RGCs to 100 ms flashes of light. The light stimulus was either a 250-μm or 1.5-mm diameter spot. […]

[1] = test system: long-latency ON-center P23H rat RGC; test: Light responses of long-latency ON-center RGCs to a 250-μm spot (spike rasters, PSTHs); type: cell-based; conditions: sulpiride 12 µM, clozapine 5 μM, aripiprazole 5 μM, eticlopride 1 µM, MDL-100907 640 nM
Method: as §1, §2, §3
(−)-Sulpiride and clozapine were purchased from Tocris Bioscience (Minneapolis, MN). Aripiprazole was purchased from Sigma-Aldrich (St. Louis, MO). Sulpiride and clozapine were dissolved in a small amount of dimethylsulphoxide (DMSO) and diluted in physiological saline. Aripiprazole was dissolved in a small amount of 1 mM HCl and diluted in physiological saline. As in Example 1, the drug solutions were applied to the bathing solution using calibrated syringe pumps (Razel Scientific Instruments). Drugs were bath applied for ˜10 min to ensure stable responses before effects were examined. Only one cell was studied in each retina to avoid possible residual drug effects. P23H rat RGCs were identified as either ON-center or OFF-center cells from their responses to a 500-700 ms flash of a small (250-μm diameter) spot of light centered over the receptive field. ON-center cells elicit an excitatory response to the onset but not to the offset of the spot of light, whereas OFF-center cells elicit an excitatory response to the offset of the spot of light. […]

[2] = test system: D2 and D3 receptors over D4 receptors; conditions: compared with sulpiride; cited from earlier work
OFF-center P23H rat RGC = test: Light responses of OFF-center RGCs that show a long-latency ON response; type: cell-based; conditions: 250-μm spot; sulpiride 9 µM, aripiprazole 5 µM
Method: as §1, §2
as §3, with “During recordings from RGCs, light flashes were presented with interstimulus intervals of 3-15 s (depending upon the duration and intensity of the light stimulus) to avoid any adapting effect of the previous flash. All experiments were performed in a dimly lighted room (10 lux).” left out

[3] = eticlopride 1 μM, 6 P23H rat RGCs
[4] = sulpiride 13 µM, L-745,870 1 µM
[5] = pooled data of MDL-100907 and SB-242084, 6 P23H rat RGCs

Structure (SMILES): O=C(CCCN1CCC(O)(c2ccc(Cl)cc2)CC1)c1ccc(F)cc1 [haloperidol]
- number of RGCs tested whose sensitivity was increased (P23H rat RGCs): all 4
- average lowering of light intensity (increase in light sensitivity) (P23H rat RGCs): 0.28 log unit
- light intensity at which the pre-drug half-maximum response was obtained in the presence of the drug, average (P23H rat RGCs): −3.39±0.43 log units attenuation

Structure (SMILES): CCc1cc(Cl)c(OC)c(C(=O)NC[C@@H]2CCCN2CC)c1O [eticlopride, (−)-Eticlopride]
- effect on the OFF response [1]: appeared; also recorded: brought out an OFF response
- effect on the long-latency ON response [1]: abolished; also recorded: eliminated
- average increase in light sensitivity (P23H rat RGCs; [3]): 0.31 log unit
- average light sensitivity during drug (P23H rat RGCs; [3]): −3.07 log units
- cells showing an increase in light sensitivity (P23H rat RGCs; [3]): All cells
- selectivity for D2 and D3 receptors over D4 receptors [2]: greater selectivity than sulpiride

Structure (SMILES): O=C1CCc2ccc(OCCCCN3CCN(c4cccc(Cl)c4Cl)CC3)cc2N1 [aripiprazole]
- effect on the OFF response [1]: appeared; also recorded: brought out an OFF response
- effect on the long-latency ON response [1]: still present; also recorded: did not eliminate
- effect on the OFF response (OFF-center P23H rat RGC): remained intact; also recorded: spared
- effect on the delayed (long-latency) ON response (OFF-center P23H rat RGC): reduced; also recorded: eliminated
- average lowering of light intensity (increase in light sensitivity) (P23H rat RGCs): 0.27 log unit
- light intensity at which the pre-drug half-maximum response was obtained in the presence of the drug, average (P23H rat RGCs): −3.54±0.36 log units attenuation

Structure (SMILES): CN1CCN(C2=Nc3cc(Cl)ccc3Nc3ccccc32)CC1 [clozapine]
- average lowering of light intensity (increase in light sensitivity) (P23H rat RGCs): 0.30 log unit
- light intensity at which the pre-drug half-maximum response was obtained in the presence of the drug, average (P23H rat RGCs): −3.56±0.55 log units attenuation

Structure (SMILES): CCN1CCC[C@H]1CNC(=O)c1cc(S(N)(=O)=O)ccc1OC [sulpiride, (−)-Sulpiride]
- effect on the OFF response [1]: appeared; also recorded: brought out an OFF response
- effect on the long-latency ON response [1]: abolished; also recorded: eliminated
- effect on the OFF response (OFF-center P23H rat RGC): remained intact; also recorded: spared
- effect on the delayed (long-latency) ON response (OFF-center P23H rat RGC): reduced; also recorded: diminished
- number of RGCs tested whose sensitivity was increased (P23H rat RGCs): 8 of the 9
- average lowering of light intensity (increase in light sensitivity) (P23H rat RGCs): 0.29 log unit
- light intensity at which the pre-drug half-maximum response was obtained in the presence of the drug, average (P23H rat RGCs): −3.17±0.27 log units attenuation
- shift of the intensity-response curve (P23H rat RGCs; single P23H rat RGC, sulpiride 13 µM, L-745,870 1 µM): to the left
- increase in light sensitivity of the representative RGC (P23H rat RGCs; [4]): 0.44 log unit
- light intensity that evoked the pre-drug half-maximum response with application of the drug, representative RGC (P23H rat RGCs; [4]): −3.47 log units attenuation

Structure (SMILES): COc1cccc([C@H](O)C2CCN(CCc3ccc(F)cc3)CC2)c1OC [MDL-100907]
- effect on the OFF response [1]: appeared; also recorded: brought out an OFF response
- effect on the long-latency ON response [1]: abolished; also recorded: eliminated
- average increase in sensitivity, pooled 5-HT2 antagonists (P23H rat RGCs; [5]): 0.25 log unit
- average light sensitivity during drug, pooled 5-HT2 antagonists (P23H rat RGCs; [5]): −3.25 log units

Structure (SMILES): CCN1CCCC1CNC(=O)c1cc(S(=O)(=O)CC)c(N)cc1OC (stereo not drawn) [amisulpride]
- number of RGCs tested whose sensitivity was increased (P23H rat RGCs): all 5
- average lowering of light intensity (increase in light sensitivity) (P23H rat RGCs): 0.39 log unit
- light intensity at which the pre-drug half-maximum response was obtained in the presence of the drug, average (P23H rat RGCs): −3.67±0.30 log units attenuation

Structure (SMILES): Cl.Cl.Cl.Clc1ccc(N2CCN(Cc3c[nH]c4ncccc34)CC2)cc1 [L-745,870, 3-(4-[4-Chlorophenyl]piperazin-1-yl)-methyl-1-H-pyrrolo[2,3-b]pyridinetrihydrochloride]
- number of RGCs tested whose sensitivity was increased (P23H rat RGCs): 11 of the 12
- average lowering of light intensity (increase in light sensitivity) (P23H rat RGCs): 0.21 log unit
- light intensity at which the pre-drug half-maximum response was obtained in the presence of the drug, average (P23H rat RGCs): −3.31±0.54 log units attenuation
- increase in light sensitivity of the representative RGC (P23H rat RGCs; [4]): 0.34 log unit
- light intensity that evoked the pre-drug half-maximum response with application of the drug, representative RGC (P23H rat RGCs; [4]): −3.69 log units attenuation
